Values after ≈ are worked out from the molar mass of the structure shown.

For orientation: MIC means the lowest concentration that inhibits growth of the organism. Higher therefore signals weaker potency.

For this assay, the system named is Mycobacterium tuberculosis. Put plainly: Antimycobacterial activity against Mycobacterium tuberculosis H37Rv by agar dilution method. It counts as functional. (In general: In agar dilution, organisms are placed on agar that contains the substance at set levels.)
`O=C1C[C@H](c2ccc(Cl)cc2)N[C@H](c2ccc(Cl)cc2)[C@H]1c1ccccc1` yielded an MIC of 31.5 µM (≈ 12.5 µg/mL).

Consider `Cc1ccc([C@H]2N[C@@H](c3ccc(C)cc3)CC(=O)[C@@H]2c2ccccc2)cc1`, for which inhibition of growth (MIC) required 70.3 µM (≈ 25 µg/mL).

As to `O=C1C[C@H](c2ccc(F)cc2)N[C@H](c2ccc(F)cc2)[C@H]1c1ccccc1`, the minimal inhibitory concentration (MIC) was found to be 34.4 µM (≈ 12.5 µg/mL).

In turn, `O=C1C[C@H](c2ccccc2Cl)N[C@H](c2ccccc2Cl)[C@H]1c1ccccc1` registered an MIC of 31.5 µM (≈ 12.5 µg/mL).

Compound `Cc1ccccc1[C@H]1N[C@@H](c2ccccc2C)CC(=O)[C@@H]1c1ccccc1` returned an MIC of 70.3 µM (≈ 25 µg/mL).

Turning to `COc1ccccc1[C@H]1N[C@@H](c2ccccc2OC)CC(=O)[C@@H]1c1ccccc1`, the lowest concentration to inhibit growth (MIC) was 64.5 µM (≈ 25 µg/mL).

With `O=C1[C@H](c2ccccc2)[C@@H](c2ccccc2)N[C@@H](c2ccccc2)[C@@H]1c1ccccc1`, inhibition of growth (MIC) required 62 µM (≈ 25 µg/mL).

As to `O=C1[C@H](c2ccccc2)[C@@H](c2ccc(Cl)cc2)N[C@@H](c2ccc(Cl)cc2)[C@@H]1c1ccccc1`, it took 13.2 µM (≈ 6.25 µg/mL) to inhibit growth (MIC).

As to `Cc1ccc([C@H]2N[C@@H](c3ccc(C)cc3)[C@H](c3ccccc3)C(=O)[C@@H]2c2ccccc2)cc1`, inhibition of growth (MIC) required 29 µM (≈ 12.5 µg/mL).

In turn, `COc1ccc([C@H]2N[C@@H](c3ccc(OC)cc3)[C@H](c3ccccc3)C(=O)[C@@H]2c2ccccc2)cc1` came in with an MIC of 27 µM (≈ 12.5 µg/mL).

The compound `O=C1[C@H](c2ccccc2)[C@@H](c2ccc(F)cc2)N[C@@H](c2ccc(F)cc2)[C@@H]1c1ccccc1` returned an MIC of 7.12 µM (≈ 3.13 µg/mL).

Turning to `O=C1[C@H](c2ccccc2)[C@@H](c2ccccc2Cl)N[C@@H](c2ccccc2Cl)[C@@H]1c1ccccc1`, 13.2 µM (≈ 6.25 µg/mL) was the least that counted as inhibitory (MIC).

Consider `Cc1ccccc1[C@H]1N[C@@H](c2ccccc2C)[C@H](c2ccccc2)C(=O)[C@@H]1c1ccccc1`, for which it took 29 µM (≈ 12.5 µg/mL) to inhibit growth (MIC).

Consider `COc1ccccc1[C@H]1N[C@@H](c2ccccc2OC)[C@H](c2ccccc2)C(=O)[C@@H]1c1ccccc1`, for which the MIC was 27 µM (≈ 12.5 µg/mL).

Consider `O=NN1C(c2ccccc2)CC(=O)C(c2ccccc2)C1c1ccccc1` (stereo not drawn), for which the MIC worked out at 17.5 µM (≈ 6.25 µg/mL).

`O=NN1C(c2ccc(Cl)cc2)CC(=O)C(c2ccccc2)C1c1ccc(Cl)cc1` (stereo not drawn) yielded an MIC of 7.35 µM (≈ 3.13 µg/mL).

Compound `Cc1ccc(C2CC(=O)C(c3ccccc3)C(c3ccc(C)cc3)N2N=O)cc1` (stereo not drawn) came in with a minimal inhibitory concentration (MIC) of 8.14 µM (≈ 3.13 µg/mL).

In turn, `O=NN1C(c2ccc(F)cc2)CC(=O)C(c2ccccc2)C1c1ccc(F)cc1` (stereo not drawn) gave a minimum inhibitory concentration (MIC) of 3.97 µM (≈ 1.56 µg/mL).

With `Cc1ccccc1C1CC(=O)C(c2ccccc2)C(c2ccccc2C)N1N=O` (stereo not drawn), the MIC was 8.14 µM (≈ 3.13 µg/mL).

`O=NN1C(c2ccccc2)C(c2ccccc2)C(=O)C(c2ccccc2)C1c1ccccc1` (stereo not drawn) returned a minimum inhibitory concentration (MIC) of 14.4 µM (≈ 6.25 µg/mL).

Compound `O=NN1C(c2ccc(Cl)cc2)C(c2ccccc2)C(=O)C(c2ccccc2)C1c1ccc(Cl)cc1` (stereo not drawn) gave an MIC of 3.11 µM (≈ 1.56 µg/mL).

Compound `Cc1ccc(C2C(c3ccccc3)C(=O)C(c3ccccc3)C(c3ccc(C)cc3)N2N=O)cc1` (stereo not drawn) showed an MIC of 6.79 µM (≈ 3.13 µg/mL).

The compound `COc1ccc(C2C(c3ccccc3)C(=O)C(c3ccccc3)C(c3ccc(OC)cc3)N2N=O)cc1` (stereo not drawn) gave an MIC of 12.7 µM (≈ 6.25 µg/mL).

For the compound `O=NN1C(c2ccccc2Cl)C(c2ccccc2)C(=O)C(c2ccccc2)C1c1ccccc1Cl` (stereo not drawn), inhibition of growth (MIC) required 3.11 µM (≈ 1.56 µg/mL).

Take `Cc1ccccc1C1C(c2ccccc2)C(=O)C(c2ccccc2)C(c2ccccc2C)N1N=O` (stereo not drawn): the MIC worked out at 6.79 µM (≈ 3.13 µg/mL).

`COc1ccccc1C1C(c2ccccc2)C(=O)C(c2ccccc2)C(c2ccccc2OC)N1N=O` (stereo not drawn): the lowest concentration to inhibit growth (MIC) was 6.35 µM (≈ 3.13 µg/mL).

Regarding `N#CN1C(c2ccccc2)CC(=O)C(c2ccccc2)C1c1ccccc1` (stereo not drawn), 70.9 µM (≈ 25 µg/mL) was the least that counted as inhibitory (MIC).

In the case of `N#CN1C(c2ccc(Cl)cc2)CC(=O)C(c2ccccc2)C1c1ccc(Cl)cc1` (stereo not drawn), it took 29.7 µM (≈ 12.5 µg/mL) to inhibit growth (MIC).

The compound `Cc1ccc(C2CC(=O)C(c3ccccc3)C(c3ccc(C)cc3)N2C#N)cc1` (stereo not drawn) had an MIC of 65.7 µM (≈ 25 µg/mL).

With `COc1ccc(C2CC(=O)C(c3ccccc3)C(c3ccc(OC)cc3)N2C#N)cc1` (stereo not drawn), the MIC turned out to be 30.3 µM (≈ 12.5 µg/mL).

Turning to `N#CN1C(c2ccc(F)cc2)CC(=O)C(c2ccccc2)C1c1ccc(F)cc1` (stereo not drawn), inhibition of growth (MIC) required 16.1 µM (≈ 6.25 µg/mL).

The compound `N#CN1C(c2ccccc2)C(c2ccccc2)C(=O)C(c2ccccc2)C1c1ccccc1` (stereo not drawn) yielded an MIC of 58.3 µM (≈ 25 µg/mL).

`N#CN1C(c2ccc(Cl)cc2)C(c2ccccc2)C(=O)C(c2ccccc2)C1c1ccc(Cl)cc1` (stereo not drawn) showed an MIC of 25.1 µM (≈ 12.5 µg/mL).

As for `N#CN1C(c2ccccc2Cl)C(c2ccccc2)C(=O)C(c2ccccc2)C1c1ccccc1Cl` (stereo not drawn), the MIC came to 12.6 µM (≈ 6.25 µg/mL).

In turn, `Cc1ccccc1C1C(c2ccccc2)C(=O)C(c2ccccc2)C(c2ccccc2C)N1C#N` (stereo not drawn) came in with an MIC of 27.4 µM (≈ 12.5 µg/mL).

For the compound `CC[C@@H](CO)NCCN[C@@H](CC)CO` [ETHAMBUTOL], the MIC was determined as 7.6 µM (≈ 1.55 µg/mL).

`NNC(=O)c1ccncc1` [ISONIAZID] showed an MIC of 0.4 µM (≈ 0.0549 µg/mL).

In the case of `NC(=O)c1cnccn1` [PYRAZINAMIDE], the minimum inhibitory concentration (MIC) was determined as 50.8 µM (≈ 6.25 µg/mL).

These data come from ChEMBL document CHEMBL1795295, “Synthesis and antimycobacterial activity of highly functionalized tetrahydro-4(1H)-pyridinones” (2011).
